Results from patent US9365588B2, “Benzoxazines as modulators of ion channels” (Vertex Pharmaceuticals Incorporated, priority 2011, dated 2016).

Each compound was assayed against human NaV 1.7 (Homo sapiens, UniProt Q15858) (assay: E-VIPR optical membrane potential assay with electrical stimulation). Settings: sodium channel inhibition; read-out: Binned Activity Data (IC50).
Assay type: cell-based
Method in brief: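 Membrane-potential read-out: background-subtracted 460 nm/580 nm ratio during a 9 s current-controlled stimulus, 400 Hz scan. Before stimulation, NaV1.7-HEK cells carried coumarin/oxonol dye and compound (final DMSO 0.625%) for 20–35 min at room temperature; tetracaine 125 μM served as positive control.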

human NaV 1.7, sequence (Q15858 whole entry): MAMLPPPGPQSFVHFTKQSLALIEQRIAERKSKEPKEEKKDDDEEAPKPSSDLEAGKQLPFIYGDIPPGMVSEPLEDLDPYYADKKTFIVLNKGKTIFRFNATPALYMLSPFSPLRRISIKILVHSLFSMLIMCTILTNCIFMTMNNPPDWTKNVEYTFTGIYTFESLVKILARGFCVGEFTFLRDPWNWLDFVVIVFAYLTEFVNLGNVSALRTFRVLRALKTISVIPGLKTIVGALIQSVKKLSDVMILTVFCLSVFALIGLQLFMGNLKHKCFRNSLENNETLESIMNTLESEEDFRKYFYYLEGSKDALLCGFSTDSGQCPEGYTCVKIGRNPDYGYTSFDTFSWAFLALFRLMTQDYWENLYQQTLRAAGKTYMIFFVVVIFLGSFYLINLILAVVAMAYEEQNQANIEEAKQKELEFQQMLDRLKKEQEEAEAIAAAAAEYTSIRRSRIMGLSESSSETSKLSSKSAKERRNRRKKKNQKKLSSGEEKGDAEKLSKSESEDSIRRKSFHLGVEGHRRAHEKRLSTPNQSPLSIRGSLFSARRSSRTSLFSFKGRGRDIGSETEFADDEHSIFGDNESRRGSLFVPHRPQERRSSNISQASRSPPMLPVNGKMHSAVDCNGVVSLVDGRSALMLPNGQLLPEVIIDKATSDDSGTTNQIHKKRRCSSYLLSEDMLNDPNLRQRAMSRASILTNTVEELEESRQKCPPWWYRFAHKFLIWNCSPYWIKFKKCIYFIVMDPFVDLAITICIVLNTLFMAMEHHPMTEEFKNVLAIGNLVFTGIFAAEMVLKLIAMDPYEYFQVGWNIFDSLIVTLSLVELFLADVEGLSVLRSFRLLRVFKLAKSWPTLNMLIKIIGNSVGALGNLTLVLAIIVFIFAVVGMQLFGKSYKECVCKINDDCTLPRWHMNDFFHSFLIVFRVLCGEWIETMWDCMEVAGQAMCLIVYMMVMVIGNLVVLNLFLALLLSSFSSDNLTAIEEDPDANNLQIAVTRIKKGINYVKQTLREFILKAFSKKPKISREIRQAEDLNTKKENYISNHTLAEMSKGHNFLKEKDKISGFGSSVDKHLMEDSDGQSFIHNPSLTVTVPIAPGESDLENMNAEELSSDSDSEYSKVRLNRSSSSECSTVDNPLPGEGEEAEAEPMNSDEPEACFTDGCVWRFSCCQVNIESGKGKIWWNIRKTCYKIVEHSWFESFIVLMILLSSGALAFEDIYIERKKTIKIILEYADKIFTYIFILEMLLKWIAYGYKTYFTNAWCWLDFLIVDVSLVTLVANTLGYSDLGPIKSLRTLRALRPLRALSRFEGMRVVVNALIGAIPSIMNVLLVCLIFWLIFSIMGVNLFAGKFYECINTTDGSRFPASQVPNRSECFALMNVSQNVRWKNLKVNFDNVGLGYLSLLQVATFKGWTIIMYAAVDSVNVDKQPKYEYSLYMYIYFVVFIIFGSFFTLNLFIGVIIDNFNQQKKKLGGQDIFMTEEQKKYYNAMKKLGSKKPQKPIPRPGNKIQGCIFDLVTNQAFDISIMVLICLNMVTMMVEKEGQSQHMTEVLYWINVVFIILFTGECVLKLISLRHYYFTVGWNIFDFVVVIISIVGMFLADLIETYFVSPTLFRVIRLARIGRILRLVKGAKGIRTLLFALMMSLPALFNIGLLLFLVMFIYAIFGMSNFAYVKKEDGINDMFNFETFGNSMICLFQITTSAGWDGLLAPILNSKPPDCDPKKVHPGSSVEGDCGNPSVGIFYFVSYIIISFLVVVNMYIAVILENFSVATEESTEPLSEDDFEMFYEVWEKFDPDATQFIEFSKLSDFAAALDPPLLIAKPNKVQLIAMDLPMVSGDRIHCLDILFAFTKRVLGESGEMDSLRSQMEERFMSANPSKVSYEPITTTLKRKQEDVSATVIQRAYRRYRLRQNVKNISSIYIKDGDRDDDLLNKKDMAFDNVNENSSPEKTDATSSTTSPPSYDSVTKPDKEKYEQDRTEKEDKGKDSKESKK

Row | Structure (SMILES) | IC50 [nM]
1 | CC(C)(Oc1ccc(C(=O)N2CCC3(CC2)Oc2ccccc2-n2c(C#N)ccc23)cc1)C(=O)O [Compound 334] | > 5000
2 | Cc1cc(C(=O)N2CCC3(CC2)Oc2ccccc2-n2c(C#N)ccc23)ccc1O [Compound 76] | ≤ 2000
3 | Cc1cc(C(=O)N2CCC3(CC2)Oc2ccccc2-n2c(C(F)(F)F)ccc23)ccc1O [Compound 732] | ≤ 2000
4 | Cc1cc(C(=O)N2CCC3(CC2)Oc2ccccc2-n2ccnc23)ccc1OC(C)C [Compound 153] | ≤ 2000
5 | CC(=O)c1ccc2n1-c1ccccc1OC21CCN(C(=O)c2ccc(C(C)(C)O)cc2)CC1 [Compound 379] | ≤ 2000
6 | Cn1ncc2c1-c1ccccc1OC21CCN(C(=O)c2cn(C)c3cccnc23)CC1 [Compound 600] | ≤ 2000
7 | Cn1cc2c(n1)-c1ccccc1OC21CCN(C(=O)c2ccc3nc(Cl)sc3c2)CC1 [Compound 843] | 2000 to 5000
8 | Cc1cc(C(=O)N2CCC3(CC2)Oc2cc(Cl)ccc2-c2c3cnn2C)ccc1OC(C)C [Compound 370] | ≤ 2000
9 | COc1cc(OC(C)(C)C)ccc1C(=O)N1CCC2(CC1)Oc1ccccc1-c1c2cnn1C [Compound 94] | ≤ 2000
10 | Cn1ncc2c1-c1cc(Cl)ccc1OC21CCN(C(=O)c2ccccc2OC(F)F)CC1 [Compound 283] | ≤ 2000
11 | CC(CO)NS(=O)(=O)c1ccc(C(=O)N2CCC3(CC2)Oc2ccccc2-n2c(C#N)ccc23)cc1 (stereo not shown) [Compound 49] | > 5000
12 | N#Cc1ccccc1C(=O)N1CCC2(CC1)Oc1cc(Cl)ccc1-n1cccc12 [Compound 343] | > 5000
13 | COc1ccc(C(=O)N2CCC3(CC2)Oc2ccccc2-n2c3ccc2S(C)(=O)=O)cc1C(F)(F)F [Compound 819] | ≤ 2000
14 | Cc1cc(C(=O)N2CCC3(CC2)Oc2ccccc2-n2c(C#N)ccc23)ccc1S(=O)(=O)C(C)C [Compound 363] | ≤ 2000
15 | Cc1cccc(C(=O)N2CCC3(CC2)Oc2ccccc2-c2c3cnn2C)c1OC(C)C [Compound 608] | ≤ 2000
16 | COc1cc(C(=O)N2CCC3(CC2)Oc2ccccc2-c2c3cnn2C)ccc1O[C@@H]1CCOC1 [Compound 427] | ≤ 2000
17 | Cc1cc(S(C)(=O)=O)ccc1C(=O)N1CCC2(CC1)Oc1ccccc1-n1c(C#N)ccc12 [Compound 784] | ≤ 2000
18 | Cn1ncc2c1-c1ccccc1OC21CCN(C(=O)c2ccc(OC(C)(C)C)cc2F)CC1 [Compound 704] | ≤ 2000
19 | CC(=O)c1ccc2n1-c1ccccc1OC21CCN(C(=O)c2ccccc2OC(F)F)CC1 [Compound 360] | ≤ 2000
20 | COc1cc(C(=O)N2CCC3(CC2)Oc2ccccc2-c2c3cnn2C)ccc1S(=O)(=O)C(C)C [Compound 586] | > 5000
21 | Cn1ncc2c1-c1ccc(F)cc1OC21CCN(C(=O)c2ccccc2OC(F)(F)F)CC1 [Compound 468] | ≤ 2000
22 | CC(C)CS(=O)(=O)c1ccc(C(=O)N2CCC3(CC2)Oc2ccccc2-c2c3cnn2C)cc1 [Compound 423] | ≤ 2000

Row | Structure (SMILES) | IC50 [nM]
23 | COc1c(C)cccc1C(=O)N1CCC2(CC1)Oc1cc(Cl)ccc1-n1cccc12 [Compound 605] | ≤ 2000
24 | Cc1cc(OC(C)C)ccc1C(=O)N1CCC2(CC1)Oc1ccccc1-c1c2cnn1C [Compound 158] | ≤ 2000
25 | CCS(=O)(=O)c1ccc(C(=O)N2CCC3(CC2)Oc2ccccc2-n2c(C(F)(F)F)ccc23)cc1 [Compound 456] | ≤ 2000
26 | O=C(c1ccc(O)c(Cl)c1)N1CCC2(CC1)Oc1ccccc1-n1c(C(F)(F)F)ccc12 [Compound 878] | ≤ 2000
27 | Cc1cc2n(c1)-c1ccccc1OC21CCN(C(=O)c2ccc(OC(C)C)c(C)c2)CC1 [Compound 852] | ≤ 2000
28 | CC(C)Oc1cccc(C(=O)N2CCC3(CC2)Oc2ccccc2-n2c(C#N)ccc23)c1F [Compound 770] | ≤ 2000
29 | Cc1cc(C(=O)N2CCC3(CC2)Oc2ccccc2-n2c(C#N)ccc23)ccc1OC(C)(C)C(=O)O [Compound 408] | 2000 to 5000
30 | Cn1ncc2c1-c1ccccc1OC21CCN(C(=O)c2ccc3[nH]ncc3c2)CC1 [Compound 444] | > 5000
31 | Cn1ncc2c1-c1ccccc1OC21CCN(C(=O)c2cccc(OC(F)(F)F)c2)CC1 [Compound 619] | > 5000
32 | O=C(c1ccc(OCCO)cc1)N1CCC2(CC1)Oc1ccccc1-n1c(C(F)(F)F)ccc12 [Compound 846] | ≤ 2000
33 | Cn1cc2c(n1)-c1ccccc1OC21CCN(C(=O)c2ccnc3ccccc23)CC1 [Compound 652] | ≤ 2000
34 | Cc1ccc(C(=O)N2CCC3(CC2)Oc2cc(Cl)ccc2-n2cccc23)c(=O)n1C [Compound 502] | ≤ 2000
35 | Cn1cc(C(=O)N2CCC3(CC2)Oc2cc(Cl)ccc2-n2cccc23)ccc1=O [Compound 670] | > 5000
36 | Cn1cc2c(n1)-c1ccccc1OC21CCN(C(=O)c2cccc3cccnc23)CC1 [Compound 113] | ≤ 2000
37 | O=C(c1cc(Cl)cc(C(F)(F)F)c1)N1CCC2(CC1)Oc1cc(Cl)ccc1-n1cccc12 [Compound 57] | ≤ 2000
38 | Cn1ncc2c1-c1ccccc1OC21CCN(C(=O)c2cccc3c2CCO3)CC1 [Compound 160] | > 5000
39 | Cn1ncc2c1-c1ccccc1OC21CCN(C(=O)c2ccc(CC(C)(C)O)cc2)CC1 [Compound 473] | ≤ 2000
40 | Cn1ncc2c1-c1ccccc1OC21CCN(C(=O)c2ccc(OC(F)F)cc2)CC1 [Compound 811] | > 5000
41 | Cn1ncc2c1-c1ccccc1OC21CCN(C(=O)c2cccc3c2OCCC3)CC1 [Compound 841] | ≤ 2000
42 | Cn1ncc2c1-c1ccccc1OC21CCN(C(=O)c2ccccc2OC(F)F)CC1 [Compound 381] | ≤ 2000
43 | COc1ccc(F)cc1C(=O)N1CCC2(CC1)Oc1ccccc1-c1c2cnn1C [Compound 476] | ≤ 2000

Results, then the compound that gave them:

Row | IC50 [nM] | Structure (SMILES)
44 | ≤ 2000 | COc1cc(C(=O)N2CCC3(CC2)Oc2cc(F)ccc2-n2cccc23)ccc1OC[C@@H](C)OC [Compound 30]
45 | ≤ 2000 | COc1cc(C(=O)N2CCC3(CC2)Oc2cc(F)ccc2-n2cccc23)ccc1OC[C@H]1COC(C)(C)O1 [Compound 228]
46 | ≤ 2000 | COc1cccc(OC)c1C(=O)N1CCC2(CC1)Oc1cc(Cl)ccc1-n1cccc12 [Compound 703]
47 | ≤ 2000 | CCc1ccc(C(=O)N2CCC3(CC2)Oc2cc(F)ccc2-n2cccc23)cc1C [Compound 377]
48 | 2000 to 5000 | COCCOc1ccc(C(=O)N2CCC3(CC2)Oc2ccccc2-c2c3cnn2CCOC)cc1OC [Compound 469]
49 | ≤ 2000 | COC(C)(C)c1ccc(C(=O)N2CCC3(CC2)Oc2cc(F)ccc2-n2cccc23)cc1C [Compound 166]
50 | ≤ 2000 | COc1ccc(C(=O)N2CCC3(CC2)Oc2ccccc2-n2c(C(F)(F)F)ccc23)cc1Cl [Compound 871]
51 | ≤ 2000 | COc1ccc(C(=O)N2CCC3(CC2)Oc2ccccc2-n2c(C(F)(F)F)ccc23)cc1C [Compound 884]
52 | ≤ 2000 | CC(C)S(=O)(=O)c1ccc(C(=O)N2CCC3(CC2)Oc2ccccc2-n2cccc23)cc1 [Compound 579]
53 | ≤ 2000 | CCn1ncc2c1-c1ccccc1OC21CCN(C(=O)c2ccc(OCCOC)c(OC)c2)CC1 [Compound 51]
54 | ≤ 2000 | COc1cc(C(=O)N2CCC3(CC2)Oc2ccccc2-c2c3cnn2C)ccc1OC[C@H](C)OC [Compound 146]
55 | ≤ 2000 | CCc1ccc(C(=O)N2CCC3(CC2)Oc2cc(C(=O)N(C)C)ccc2-n2cccc23)cc1OC [Compound 863]
56 | ≤ 2000 | COCCOc1ccc(C(=O)N2CCC3(CC2)Oc2ccccc2-n2cccc23)cc1OC [Compound 791]
57 | ≤ 2000 | CCc1ccc(C(=O)N2CCC3(CC2)Oc2cc(Cl)ccc2-n2cccc23)cc1OC [Compound 697]
58 | ≤ 2000 | Cc1cc(C(=O)N2CCC3(CC2)Oc2ccccc2-n2cccc23)ccc1C(C)(C)O [Compound 443]
59 | ≤ 2000 | COc1cc(C(=O)N2CCC3(CC2)Oc2cc(F)ccc2-n2cccc23)ccc1O[C@H]1CCOC1 [Compound 592]
60 | 2000 to 5000 | COc1cc(C(=O)N2CCC3(CC2)Oc2ccccc2-n2cccc23)ccc1OCC(=O)O [Compound 585]
61 | ≤ 2000 | O=C(c1ccc(OC2COC2)c(C(F)(F)F)c1)N1CCC2(CC1)Oc1ccccc1-n1cccc12 [Compound 37]
62 | ≤ 2000 | COCCCOc1ccc(C(=O)N2CCC3(CC2)Oc2ccccc2-n2cccc23)cc1OC [Compound 83]
63 | ≤ 2000 | CCc1ccc(C(=O)N2CCC3(CC2)Oc2ccccc2-n2cc(C)cc23)cc1OC [Compound 395]
64 | ≤ 2000 | COc1cc(C(=O)N2CCC3(CC2)Oc2cccnc2-n2cccc23)ccc1OCCC(C)C [Compound 165]
